This note sets out measurements from PubChem BioAssay (NCI).

Test systems include UACC-62 melanoma; SF-295 CNS; EKVX NSCLC; COLO 205 colon; HCT-116 colon; PC-3 prostate; SW-620 colon; LOX IMVI melanoma; MOLT-4 leukemia; NCI/ADR-RES ovarian.
What all share (test): inhibition of tumour cell growth, NCI panel, 48 h

Values joined by “and” are separate entries in the source; they are usually repeats but may differ in a detail not shown here. Equal entries are not always repeated.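 Cells were grown in 96-well plates and exposed to each compound for 48 hours at five concentrations; endpoints were interpolated linearly between bracketing concentrations, or set to the highest concentration if not reached. GI50: concentration for 50% inhibition of growth. TGI: total growth inhibition.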

Turning to `Cc1[nH]c2ccccc2c1-c1cc(-c2cc(-c3c(C)[nH]c4ccccc34)on2)no1`, the TGI in the experiment with UACC-62 melanoma, in the experiment with SF-295 CNS, with EKVX NSCLC, in the experiment with COLO 205 colon, with HCT-116 colon and in the experiment with PC-3 prostate was over 100 µM throughout. Also, the TGI in the experiment with SW-620 colon, in the experiment with LOX IMVI melanoma, in the experiment with MOLT-4 leukemia and in the experiment on NCI/ADR-RES ovarian was over 100 µM in each case.

Regarding `C=CCc1cccc(/C=N/NC(=O)CN2CCN(Cc3ccccc3)CC2)c1O`, the GI50 with UACC-62 melanoma was 3.28 µM; in the experiment on SF-295 CNS it was 0.649 µM; with EKVX NSCLC, 2.49 µM; in the experiment on COLO 205 colon, 2.22 µM; in the experiment with HCT-116 colon, 1.71 µM; with PC-3 prostate, 3.45 µM. Moreover, the GI50 in the experiment with SW-620 colon is 3.8 µM; in the experiment with LOX IMVI melanoma it was 1.05 µM; in the experiment with MOLT-4 leukemia, 1.12 µM; in the experiment on NCI/ADR-RES ovarian, 0.92 µM. Moreover, the TGI in the experiment on UACC-62 melanoma came to 12.8 µM; in the experiment with SF-295 CNS, 4.04 µM; in the experiment with EKVX NSCLC, 12.8 µM; with COLO 205 colon, 13.9 µM; in the experiment on HCT-116 colon it was 13.8 µM; in the experiment with PC-3 prostate, 16.1 µM. Moreover, the TGI in the experiment on SW-620 colon was found to be 17.1 µM; with LOX IMVI melanoma it was 6.59 µM; in the experiment on MOLT-4 leukemia, 5.64 µM; with NCI/ADR-RES ovarian, 11.9 µM.

In the case of `N#Cc1c(-c2ccc(F)cc2)c(-c2ccc(F)cc2)nn(CCO)c1=O`, the TGI is over 77 µM in the experiment on UACC-62 melanoma; 37.2 µM in the experiment with SF-295 CNS; over 76.6 µM in the experiment on EKVX NSCLC; 2.44 µM with COLO 205 colon; 7.04 µM with HCT-116 colon; 54.7 µM with PC-3 prostate. The TGI is over 100 µM in the experiment on SW-620 colon, over 47.6 µM in the experiment with LOX IMVI melanoma, over 100 µM with MOLT-4 leukemia and 22.5 µM in the experiment on NCI/ADR-RES ovarian.

For `C1CSCCSCCS1`, the TGI in the experiment on UACC-62 melanoma, in the experiment with SF-295 CNS, in the experiment with EKVX NSCLC, in the experiment on COLO 205 colon, in the experiment on HCT-116 colon and in the experiment on PC-3 prostate was over 100 µM throughout. Also, the TGI with SW-620 colon, in the experiment on LOX IMVI melanoma, in the experiment with MOLT-4 leukemia and with NCI/ADR-RES ovarian was over 100 µM each time.

As to `CCCn1c(N)c(C(=O)N/N=C(/C)c2cc3cccc(OC)c3o2)sc1=S`, the GI50 with UACC-62 melanoma was 34.6 µM; in the experiment on SF-295 CNS, 0.01 µM; in the experiment on EKVX NSCLC, 32.6 µM; in the experiment with COLO 205 colon it was 56.7 µM; in the experiment with HCT-116 colon it was 17.4 µM; in the experiment with PC-3 prostate, 30.6 µM. Moreover, the GI50 in the experiment with SW-620 colon was 19.2 µM; with LOX IMVI melanoma, 16.5 µM; in the experiment on MOLT-4 leukemia, 24.2 µM; with NCI/ADR-RES ovarian, 18.6 µM. Further, the TGI in the experiment on UACC-62 melanoma is over 100 µM; in the experiment on SF-295 CNS it was 18.1 µM; in the experiment with EKVX NSCLC, over 100 µM; in the experiment on COLO 205 colon, over 100 µM; with HCT-116 colon it was over 100 µM; in the experiment with PC-3 prostate, over 100 µM. The TGI with SW-620 colon, with LOX IMVI melanoma, in the experiment on MOLT-4 leukemia and with NCI/ADR-RES ovarian was over 100 µM in each case.

As to `O=C(c1ccc(F)c(F)c1Nc1ccc(I)cc1F)N1CC(O)([C@@H]2CCCCN2)C1`, the GI50 was < 0.01 µM and 0.00339 µM in the experiment with UACC-62 melanoma; 15.7 µM and > 10 µM with SF-295 CNS; 0.308 µM with EKVX NSCLC; < 0.01 µM and 0.00238 µM in the experiment with COLO 205 colon; < 0.0295 µM and 0.0851 µM in the experiment on HCT-116 colon; 5.57 µM and > 9.27 µM in the experiment on PC-3 prostate. Moreover, the GI50 with SW-620 colon was < 0.0215 µM and 0.0563 µM; with LOX IMVI melanoma it was 0.0321 µM and 0.0191 µM; in the experiment on MOLT-4 leukemia, 4.62 µM and 5.26 µM; with NCI/ADR-RES ovarian it was 6.56 µM and > 7.36 µM. For the same molecule, the TGI with UACC-62 melanoma is < 0.0158 µM and 0.0384 µM; in the experiment with SF-295 CNS it was 32.4 µM and > 10 µM; in the experiment with EKVX NSCLC, over 10 µM; in the experiment with COLO 205 colon, 4.06 µM; with HCT-116 colon it was 11.9 µM and > 10 µM; in the experiment with PC-3 prostate it was 18.8 µM and > 10 µM. The TGI in the experiment with SW-620 colon is 14.4 µM and > 10 µM; with LOX IMVI melanoma, 2.15 µM and 1.7 µM; in the experiment with MOLT-4 leukemia, 18.8 µM and > 10 µM; with NCI/ADR-RES ovarian, 21.5 µM and > 10 µM.

As to `O=c1cc2oc3cc(O)c(O)cc3c(-c3ccccc3O)c-2cc1O`, the GI50 in the experiment with UACC-62 melanoma was 6.25 µM; in the experiment on SF-295 CNS it was 19.6 µM; in the experiment with EKVX NSCLC, 29.2 µM; in the experiment with COLO 205 colon, 36.3 µM; in the experiment on HCT-116 colon, 3.81 µM; with PC-3 prostate, 36.1 µM. In addition, the GI50 with SW-620 colon was 32.7 µM; in the experiment with LOX IMVI melanoma, 4.84 µM; with MOLT-4 leukemia, 14.9 µM; in the experiment with NCI/ADR-RES ovarian, 8.16 µM. Also, the TGI in the experiment with UACC-62 melanoma was 86 µM; in the experiment with SF-295 CNS it was 61.3 µM; in the experiment with EKVX NSCLC, over 100 µM; with COLO 205 colon it was over 100 µM; in the experiment with HCT-116 colon, 21.9 µM; in the experiment on PC-3 prostate, over 100 µM. For the same molecule, the TGI was over 100 µM with SW-620 colon, 34.2 µM with LOX IMVI melanoma, over 100 µM in the experiment on MOLT-4 leukemia and 42 µM in the experiment on NCI/ADR-RES ovarian.

As to `N=c1ccn2c(n1)OC1C(O)C(CO)OC12` (centres undefined), the GI50 with UACC-62 melanoma is 1.55 µM; with SF-295 CNS, 5.93 µM; with EKVX NSCLC, over 100 µM; with COLO 205 colon, 2.28 µM; with HCT-116 colon it was 0.164 µM; in the experiment on PC-3 prostate it was over 100 µM. Further, the GI50 in the experiment on SW-620 colon was 5.76 µM and 1.28 µM; in the experiment with LOX IMVI melanoma, 0.497 µM; in the experiment on MOLT-4 leukemia, 0.016 µM; with NCI/ADR-RES ovarian, 0.659 µM. In addition, the TGI in the experiment on UACC-62 melanoma is 212 µM and > 100 µM; in the experiment with SF-295 CNS, 359 µM and > 100 µM; with EKVX NSCLC it was over 1000 µM; in the experiment on COLO 205 colon, over 1000 µM; with HCT-116 colon, over 1000 µM; with PC-3 prostate, over 1000 µM. Moreover, the TGI in the experiment with SW-620 colon was over 1000 µM; with LOX IMVI melanoma, 98.9 µM and > 100 µM; in the experiment with NCI/ADR-RES ovarian, over 753 µM.

For the molecule `C=CC(=O)N1CCC(C2CCNc3c(C(N)=O)c(-c4ccc(Oc5ccccc5)cc4)nn32)CC1` (centres undefined), the GI50 was 10.6 µM in the experiment with UACC-62 melanoma; 17.9 µM in the experiment on SF-295 CNS; 3.49 µM in the experiment on EKVX NSCLC; 19.1 µM in the experiment on COLO 205 colon; 17.6 µM in the experiment with HCT-116 colon; 22 µM in the experiment on PC-3 prostate. Besides, the GI50 in the experiment on SW-620 colon was 31.8 µM; in the experiment with LOX IMVI melanoma it was 13.3 µM; with MOLT-4 leukemia, 5.36 µM; in the experiment on NCI/ADR-RES ovarian, 16.4 µM. For the same molecule, the TGI in the experiment on UACC-62 melanoma is 27 µM; in the experiment with SF-295 CNS, 70 µM; in the experiment on EKVX NSCLC, 42 µM; with COLO 205 colon, 40.2 µM; in the experiment on HCT-116 colon, 39.5 µM; in the experiment on PC-3 prostate, 69.6 µM. For the same molecule, the TGI in the experiment with SW-620 colon was over 100 µM; with LOX IMVI melanoma, 29.4 µM; in the experiment on MOLT-4 leukemia, 31 µM; in the experiment on NCI/ADR-RES ovarian, 61 µM.
